Measured values: patent US20190270733A1, “Quinoline and Isoquinoline Based HDAC Inhibitors and Methods of Use Thereof” (Reaction Biology Corp., priority 2018, published 2019)
Several values for one entry are separate records, joined by “and”; a condition that tells them apart may be missing. Equal values may be shown once. Read-outs that look alike come from different tables or passages of the source.

Tests used:
Human HDAC2 = target: T1, Human HDAC2 (Homo sapiens, UniProt Q92769); assay: Biochemical HDAC assay, HDAC2; settings: incubation time 120 min
T1 construct: full-length with a C-terminal His-tag; His-tag (C); made in house
T1 sequence (Q92769 whole entry): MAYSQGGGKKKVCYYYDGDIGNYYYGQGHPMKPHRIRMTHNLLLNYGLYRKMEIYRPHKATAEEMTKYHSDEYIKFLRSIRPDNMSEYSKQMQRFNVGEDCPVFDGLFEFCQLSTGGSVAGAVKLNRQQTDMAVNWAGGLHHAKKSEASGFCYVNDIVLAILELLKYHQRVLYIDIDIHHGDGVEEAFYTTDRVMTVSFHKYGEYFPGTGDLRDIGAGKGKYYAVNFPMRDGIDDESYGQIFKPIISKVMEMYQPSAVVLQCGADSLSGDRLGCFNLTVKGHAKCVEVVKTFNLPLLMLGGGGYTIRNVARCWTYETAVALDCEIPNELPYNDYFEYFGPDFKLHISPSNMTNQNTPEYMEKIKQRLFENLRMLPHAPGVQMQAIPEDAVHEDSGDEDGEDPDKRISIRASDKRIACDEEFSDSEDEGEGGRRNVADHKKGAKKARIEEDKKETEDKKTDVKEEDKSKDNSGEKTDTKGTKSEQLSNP
Description: Human HDAC2 (GenBank Accession No. NM_001527), full-length with a C-terminal His-tag, MW=56 kDa, was expressed in a baculovirus expression system.
(§1) • I. Compound handling: Testing compounds were dissolved in 100% DMSO to a specific concentration. The serial dilution was conducted by epMotion 5070 in DMSO. • II. HDAC reaction buffer: 50 mM Tris-HCl, pH8.0, 137 mM NaCl, 2.7 mM KCl, and 1 mM MgCl2, Added fresh: 1 mg/ml BSA, 1% DMSO. • III. Substrate: Fluorogenic HDAC General Substrate for HDAC1, 2, 3, 6, 10, 11 ans Sirt1, 2 and 3: Arg-His-Lys-Lys(Ac); HDAC8 only substrate: Arg-His-Lys(Ac)-Lys(Ac); Class2A Substrate (HDAC4, 5, 7 and 9): Acetyl-Lys(trifluoroacetyl)-AMC; Sirt5 substrate: Ac-Lys(succinyl)-AMC. • IV. General Reaction Procedure: (Standard IC50 determination) • a. Delivered 2× enzyme in wells of reaction plate except No Enzyme (No En) control wells. Add buffer in No En wells. • b. Delivered compounds in 100% DMSO into the enzyme mixture by Acoustic technology (Echo550; nanoliter range). Spin down and pre-incubation. • c. Delivered 2× Substrate Mixture (Fluorogenic HDAC Substrate and co-factor (500 μM of Nicotinamide adenine dinucleotide (NAD^+) in all Sirt assay) in all reaction wells to initiate the reaction. Spin and shake. • d. Incubated for 1-2 hr. at 30° C. with seal. • e. Added Developer with Trichostatin A (or TMP269 or NAD^+) to stop the reaction and to generate fluorescent color. • f. Fluorescence was read (excitatory, 360; emission, 460) using the EnVision Multilabel Plate Reader (Perkin Elmer) • g. Endpoint reading was taken for analysis after the development reaches plateau. • V. Data Analysis: The percentages of enzyme activity (relative to DMSO controls) and IC50 values were calculated using the GraphPad Prism 4 program based on a sigmoidal dose-response equation.
(§2) Compounds with indicated doses was tested in the biochemical assays of HDAC1, HDAC2, HDAC3, HDAC4, HDAC5, HDAC6, HDAC7, HDAC8, HDAC9, HDAC10, or HDAC11 enzyme. The incubation time in HDAC1/2 assays are 120 min, and that for other HDACs are 10 min. The curve fit and IC50 values were calculated using the GraphPad Prism 4 program based on a sigmoidal dose-response equation.

[1] = Mouse plasma PK (IV and PO dosing); assay type: in vivo, Male C57 Bl/6J mice; settings: for AUC(0-inf): read-out: AUCINF—obs (converted); for MRT inf: read-out: MRTINF—obs
Description: In vivo PK (pharmacokinetics) studies were run at Scripps Florida DMPK Core facility. Mouse plasma PK data was obtained using the compound of Example 5 (N-(2-amino-5-(thiophen-2-yl)phenyl)-2-oxo-1,2,3,4-tetrahydroquinoline-6-carboxamide)
Dose: 1 mg/kg intravenous (IV), 7 mg/kg oral dosing (PO)
Formulation: 0.1 mg/mL (IV) and 1 mg/mL (PO) solution in 10/10/80 DMSO/Tween80/Water
Mice Info: Male C57 Bl/6J
Plasma PK were evaluated in mice after administration of compound Example 5. […] (Tmax), maximal concentration (Cmax), observed clearance (Cl_obs), mean residential time (MRT), and observed volume distribution (Vss_obs) were also quantified (Tables 2 and 3).

[2] = target: T2, Complex of human HDAC3 and human NCOR2 (Homo sapiens, UniProt O15379); assay: Biochemical HDAC assay, HDAC3; settings: incubation time 10 min
T2 construct: full-length with a C-terminal His tag; His tag (C); made in house
T2 sequence (O15379 whole entry): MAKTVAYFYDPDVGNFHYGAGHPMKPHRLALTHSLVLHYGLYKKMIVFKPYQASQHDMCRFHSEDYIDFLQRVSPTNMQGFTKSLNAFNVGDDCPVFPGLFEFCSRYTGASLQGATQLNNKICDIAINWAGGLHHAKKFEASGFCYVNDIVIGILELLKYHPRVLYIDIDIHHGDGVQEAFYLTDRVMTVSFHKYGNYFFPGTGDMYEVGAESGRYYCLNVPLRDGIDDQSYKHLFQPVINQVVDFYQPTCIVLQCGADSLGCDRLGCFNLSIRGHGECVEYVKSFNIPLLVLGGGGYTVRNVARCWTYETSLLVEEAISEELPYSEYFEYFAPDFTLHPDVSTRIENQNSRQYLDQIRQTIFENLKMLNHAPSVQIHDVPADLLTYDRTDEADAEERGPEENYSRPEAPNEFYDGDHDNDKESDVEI
T2 sequence (Q9Y618 395-489 partner limits assumed): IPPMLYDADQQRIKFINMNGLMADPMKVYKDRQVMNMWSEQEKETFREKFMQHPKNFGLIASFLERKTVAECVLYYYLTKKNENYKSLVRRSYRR
Description: Complex of human HDAC3 (GenBank Accession No. NM_003883), full-length with a C-terminal His tag, MW=49.7 kDa, and human NCOR2 (amino acid 395-489) (GenBank Accession No. NM_006312), N-terminal GST tag, MW=37.6 kDa, was co-expressed in a baculovirus expression system.
as §1, §2

Human HDAC1 = target: T3, Human HDAC1 (Homo sapiens, UniProt Q13547); assay: Biochemical HDAC assay, HDAC1; settings: incubation time 120 min
T3 construct: full-length with a C-terminal His-tag and a C-terminal FLAG-tag; His-tag (C); FLAG-tag (C); made in house
T3 sequence (Q13547 whole entry): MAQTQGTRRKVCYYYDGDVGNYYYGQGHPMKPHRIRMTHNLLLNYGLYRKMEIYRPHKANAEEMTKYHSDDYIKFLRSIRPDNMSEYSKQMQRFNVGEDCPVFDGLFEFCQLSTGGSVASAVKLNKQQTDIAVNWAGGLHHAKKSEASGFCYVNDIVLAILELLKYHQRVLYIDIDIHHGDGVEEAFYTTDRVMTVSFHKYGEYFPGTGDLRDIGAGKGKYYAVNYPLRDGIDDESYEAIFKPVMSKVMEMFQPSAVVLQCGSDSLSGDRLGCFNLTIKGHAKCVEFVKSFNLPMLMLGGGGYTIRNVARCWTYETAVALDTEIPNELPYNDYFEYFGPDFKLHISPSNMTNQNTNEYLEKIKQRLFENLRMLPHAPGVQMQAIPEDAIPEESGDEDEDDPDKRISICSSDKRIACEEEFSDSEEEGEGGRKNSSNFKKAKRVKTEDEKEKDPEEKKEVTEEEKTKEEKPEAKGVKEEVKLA
Description: Human HDAC1 (GenBank Accession No. NM_004964), full-length with a C-terminal His-tag and a C-terminal FLAG-tag, MW=56 kDa, was expressed in a baculovirus expression system.
as §1, §2

[3] = Brain exposure experiment in mice; assay type: in vivo; settings: 1 hour after exposure
Description: Brain exposure experiments were performed wherein mice were exposed to compound Example 5 at an IV dosage of 1 mg/kg (Table 4).

[4] = IV 1 mg/kg, mouse plasma, average
[5] = IV 1 mg/kg, mouse plasma, individual mice, 1 mg/kg
[6] = IV administration, mouse plasma
[7] = PO 7 mg/kg, mouse plasma, average
[8] = PO 7 mg/kg, mouse plasma, individual mice, 7 mg/kg
[9] = male, C57 Bl/6J, mouse, plasma, iv, 1 mg/kg, IV 1 mg/kg, mouse plasma, average
[10] = male, C57 Bl/6J, mouse, plasma, iv, 1 mg/kg, IV 1 mg/kg, mouse plasma, individual mice
[11] = male, C57 Bl/6J, mouse, plasma, po, 7 mg/kg, PO 7 mg/kg, mouse plasma, average
[12] = male, C57 Bl/6J, mouse, plasma, po, 7 mg/kg, PO 7 mg/kg, mouse plasma, individual mice
[13] = IV 1 mg/kg, individual mice, 1 mg/kg

Nc1ccc(-c2cccs2)cc1NC(=O)c1ccc2c(c1)CCC(=O)N2 [Example 5, N-(2-amino-5-(thiophen-2-yl)phenyl)-2-oxo-1,2,3,4-tetrahydroquinoline-6-carboxamide]
IC50 (Human HDAC2): 0.034 µM
AUC (% Extrap) [1, 4]: 1.42%
Cl_obs [1, 4]: 0.32 L/h/kg
Vss_obs [1, 4]: 0.40 L/kg
AUC (% Extrap) [1, 5]: 1.31% and 1.23% and 1.71%
AUCINF—obs [1, 5]: 184402 ng·min/mL and 207009 ng·min/mL
AUClast [1, 5]: 8.36 μM · hr and 9.34 μM · hr and 182140 min * ng/mL and 203467 min * ng/mL
Cl_obs [1, 5]: 0.345 L/h/kg and 0.325 L/h/kg and 0.29 L/h/kg
Cmax [1, 5]: 2480 ng/mL and 4540 ng/mL and 5820 ng/mL
MRTINF—obs [1, 5]: 1.19 h and 1.14 h
T1/2 [1, 5]: 1.52 h and 1.59 h
Tmax [1, 5]: 0.08 hr (2×) and 0.25 hr
Vss_obs [1, 5]: 0.48 L/kg and 0.39 L/kg and 0.33 L/kg
Cmax ([1]; IV 1 mg/kg, mouse plasma, individual mice, 1 mg/kg, read-out: Cmax): 6.83 µM and 12.5 µM and 16 µM
clearance (in words) [1, 6]: low clearance
volume (in words) [1, 6]: low volume
AUC (% Extrap) [1, 7]: 9.95%
Cl_obs [1, 7]: 1.553 L/h/kg
AUC (% Extrap) [1, 8]: 6.21% and 14.68% and 8.96%
AUCINF—obs [1, 8]: 227793 ng·min/mL and 250553 ng·min/mL
AUClast [1, 8]: 8.92 μM · hr and 10.47 μM · hr and 194363 min * ng/mL and 228113 min * ng/mL
Cl_obs [1, 8]: 1.139 L/h/kg and 1.844 L/h/kg and 1.676 L/h/kg
Cmax [1, 8]: 1590 ng/mL and 1620 ng/mL
T1/2 [1, 8]: 3.30 h and 2.62 h
Tmax [1, 8]: 1.00 hr and 0.25 hr (2×)
Cmax ([1]; PO 7 mg/kg, mouse plasma, individual mice, 7 mg/kg, read-out: Cmax): 4.38 µM and 4.46 µM
AUC ([1]; male, C57 Bl/6J, 1 mg/kg, IV administration, mouse plasma, read-out: AUC): 8.5 µM·h
AUC ([1]; male, C57 Bl/6J, 7 mg/kg, PO dosing, mouse plasma, read-out: AUC (area under the curve)): 11 to 12 µM·h
AUC(0-t) [1, 9]: 8.53 µM·h and 3100 ng·h/mL
AUC(0-inf) [1, 9]: 3.14 µg·h/mL
Cmax ([1]; male, C57 Bl/6J, mouse, plasma, iv, 1 mg/kg, IV 1 mg/kg, mouse plasma, average, read-out: Cmax): 4280 ng/mL and 11.8 µM
MRT inf [1, 9]: 1.24 h
half-life ([1]; male, C57 Bl/6J, mouse, plasma, iv, 1 mg/kg, IV 1 mg/kg, mouse plasma, average, read-out: T1/2 (converted)): 1.48 h
Tmax ([1]; male, C57 Bl/6J, mouse, plasma, iv, 1 mg/kg, IV 1 mg/kg, mouse plasma, average, read-out: Tmax): 0.14 h
AUC(0-t) [1, 10]: 7.88 µM·h and 2860 ng·h/mL
AUC(0-inf) [1, 10]: 2.9 µg·h/mL
MRT inf [1, 10]: 1.39 h
half-life ([1]; male, C57 Bl/6J, mouse, plasma, iv, 1 mg/kg, IV 1 mg/kg, mouse plasma, individual mice, read-out: T1/2 (converted)): 1.34 h
half-life ([1]; male, C57 Bl/6J, mouse, plasma, iv, 1 mg/kg, IV administration, mouse plasma, read-out: half-life (T1/2) (converted)): 1.5 h
AUC(0-t) [1, 11]: 11.8 µM·h and 4270 ng·h/mL
AUC(0-inf) [1, 11]: 4.71 µg·h/mL
Cmax ([1]; male, C57 Bl/6J, mouse, plasma, po, 7 mg/kg, PO 7 mg/kg, mouse plasma, average, read-out: Cmax): 1960 ng/mL and 5.4 µM
half-life ([1]; male, C57 Bl/6J, mouse, plasma, po, 7 mg/kg, PO 7 mg/kg, mouse plasma, average, read-out: T1/2 (converted)): 2.66 h
Tmax ([1]; male, C57 Bl/6J, mouse, plasma, po, 7 mg/kg, PO 7 mg/kg, mouse plasma, average, read-out: Tmax): 0.5 h
AUC(0-t) [1, 12]: 15.9 µM·h and 5760 ng·h/mL
AUC(0-inf) [1, 12]: 6.14 µg·h/mL
Cmax ([1]; male, C57 Bl/6J, mouse, plasma, po, 7 mg/kg, PO 7 mg/kg, mouse plasma, individual mice, read-out: Cmax): 2670 ng/mL and 7.36 µM
half-life ([1]; male, C57 Bl/6J, mouse, plasma, po, 7 mg/kg, PO 7 mg/kg, mouse plasma, individual mice, read-out: T1/2 (converted)): 2.05 h
half-life ([1]; male, C57 Bl/6J, mouse, plasma, po, 7 mg/kg, PO dosing, mouse plasma, read-out: half-life (converted)): 2.7 h
bioavailability ([1]; male, C57 Bl/6J, plasma, PO 7 mg/kg vs IV 1 mg/kg, mouse, read-out: % F (bioavailability)): 20%
IC50 [2]: > 10 µM
IC50 (Human HDAC1): 0.0025 µM
brain penetration (in words) ([3]; IV 1 mg/kg): no brain penetration
Brain concentration [3, 13]: 0 µg/mL
Plasma concentration [3, 13]: 206 ng/mL and 0.57 μM and 270 ng/mL and 0.74 μM
concentration at 1 h ([3]; IV 1 mg/kg, individual mice, 1 mg/kg, read-out: Brain concentration): 0.00 µM
concentration at 1 h ([3]; mouse, brain, iv, 1 mg/kg, average, read-out: Brain concentration): 0 ng/mL and 0 nM
concentration at 1 h ([3]; mouse, brain, iv, 1 mg/kg, individual mice, read-out: Brain concentration): 0 ng/mL and 0 nM
concentration at 1 h ([3]; mouse, plasma, iv, 1 mg/kg, average, read-out: Plasma concentration): 267 ng/mL and 730 nM
concentration at 1 h ([3]; mouse, plasma, iv, 1 mg/kg, individual mice, read-out: Plasma concentration): 324 ng/mL and 890 nM
